EC50 data for 28 compounds are collected here from patent publication US20170121344A1 (Siga Technologies, Inc., priority 2009, published 2017).

Structures are written as SMILES. Where two headings read alike, the source gives them in different places. A value given as a limit tells only on which side of the number the result lay.

The assay relates to Dengue-2 (Strain New Guinea C). Description: Viral yield assay against Dengue-2 in Vero cells. To be noted: Dengue virus. The assay is classed as cell-based, Dengue virus. The method in brief:
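Yield reduction, Vero; MOI 0.1; compound vs DMSO; 37° C; harvest 48 h p.i.; titer on Vero; EC50 fitted. Other serotypes run the same way.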

The mark [1] stands for this setting: Vero cells, MOI 0.1, harvested 48 hours post infection, read-out: Activity (EC50 class) against Dengue-2 Virus in Vero cells.
Where [2] appears, read: Vero, 48 h, read-out: Activity (EC50 class) against Dengue-2 Virus in Vero cells.
[3] abbreviates: DENV2, viral yield assay, Vero cells, MOI 0.1, 48 hours post infection, read-out: Activity (EC50 in μM) DENV-2.

Usually EC50 stands for the concentration giving half of the maximal effect. On to `COCc1cc(C)nc2sc(C(=O)Nc3ccc(C(C)=O)cc3)c(N)c12` [Compound 141, 3-Amino-4-methoxymethyl-6-methyl-thieno[2,3-b]pyridine-2-carboxylic acid (4-acetyl-phenyl)-amide], for which the EC50 under setting [1] is > 25 µM.
With `Cc1csc(NC(=O)c2sc3nc(C)c4c(c3c2N)CCCC4)n1` [Compound 4, 1-Amino-5-methyl-6,7,8,9-tetrahydro-thieno[2,3-c]isoquinoline-2-carboxylic acid (4-methyl-thiazol-2-yl)-amide], under setting [2], the EC50 is < 5 µM.
Regarding `Cc1cc(C(F)(F)F)nc2sc(C(=O)Nc3ccccc3I)c(N)c12` [Compound 131, 3-Amino-4-methyl-6-trifluoromethyl-thieno[2,3-b]pyridine-2-carboxylic acid (2-iodo-phenyl)-amide], under setting [1], the EC50 was > 25 µM.
On the same count and under the same terms, for `Cc1cc(NC(=O)c2sc3nc4c(cc3c2N)CN(C)CC4)on1` [Compound 264, 3-Amino-6-methyl-5,6,7,8-tetrahydro-thieno[2,3-b][1,6]naphthyridine-2-carboxylic acid (3-methyl-isoxazol-5-yl)-amide] the value was > 25 µM.
`COc1cc(NC(=O)c2sc3nc(C)cc(C)c3c2C)cc(OC)c1OC` [Compound 401, 3,4,6-trimethyl-N-(3,4,5-trimethoxyphenyl)thieno[2,3-b]pyridine-2-carboxamide]: under setting [3], the 50% effective concentration (EC50) is > 25 µM.
Consider `CCN1CCc2nc3sc(C(=O)Nc4cccnc4Cl)c(N)c3cc2C1` [Compound 41, 3-Amino-6-ethyl-5,6,7,8-tetrahydro-thieno[2,3-b][1,6]naphthyridine-2-carboxylic acid (2-chloro-pyridin-3-yl)-amide], for which, under setting [2], the EC50 is < 5 µM.
Take `Cc1ccc(NC(=O)c2sc3nc(-c4ccc(F)cc4)ccc3c2N)c(C)c1` [Compound 614, 3-amino-N-(2,4-dimethylphenyl)-6-(4-fluorophenyl)thieno[2,3-b]pyridine-2-carboxamide]: the EC50 under setting [3] was < 5 µM.
For `CCCc1ccc2c(N)c(C(N)=O)sc2n1` [Compound 71, 3-Amino-6-propyl-thieno[2,3-b]pyridine-2-carboxylic acid amide], the EC50 under setting [1] was 5 to 25 µM.
As for `CC1(C)Cc2c(c(N3CCOCC3)nc3sc(C(N)=O)c(N)c23)CO1` [Compound 169, 1-Amino-8,8-dimethyl-5-morpholin-4-yl-8,9-dihydro-6H-7-oxa-3-thia-4-aza-cyclopenta[a]naphthalene-2-carboxylic acid amide], the EC50 under setting [2] was > 25 µM.
With `COCc1cc(C)nc2sc3c(=O)n(-c4ccc(C)cc4C)nnc3c12` [Compound 151, 3-(2,4-Dimethyl-phenyl)-9-methoxymethyl-7-methyl-3H-pyrido[3′,2′:4,5]thieno[3,2-d][1,2,3]triazin-4-one], under setting [1], the EC50 was > 25 µM.
In the case of `O=C(Nc1cccc(Cl)c1)c1sc2ncccc2c1O` [Compound 381, N-(3-chlorophenyl)-3-hydroxy-thieno[2,3-b]pyridine-2-carboxamide], the EC50 under setting [3] was in the range of 5 to 25 µM.
Still for that read-out and setting: for `COc1ccc(-c2ccc3c(N)c(C(=O)Nc4cc(C)ccc4C)sc3n2)cc1OC` [Compound 524, 3-amino-6-(3,4-dimethoxyphenyl)-N-(2,5-dimethylphenyl)thieno[2,3-b]pyridine-2-carboxamide] the value was < 5 µM; for `COc1ccc(Cl)cc1NC(=O)c1sc2nc(-c3cccs3)ccc2c1N` [Compound 460, 3-amino-N-(5-chloro-2-methoxy-phenyl)-6-(2-thienyl)thieno[2,3-b]pyridine-2-carboxamide], < 5 µM.
Regarding `N#Cc1ccc(NC(=O)c2sc3nc(N)c(C#N)cc3c2N)cc1` [Compound 152, 3,6-Diamino-5-cyano-thieno[2,3-b]pyridine-2-carboxylic acid (4-cyano-phenyl)-amide], under setting [1], the EC50 is > 25 µM.
Turning to `Nc1c(C(=O)Nc2cccc(C(F)(F)F)c2)sc2ncccc12` [Compound 420, 3-amino-N-[3-(trifluoromethyl)phenyl] thieno[2,3-b]pyridine-2-carboxamide], the EC50 under setting [3] is < 5 µM.
As for `Cc1cc(C)c2c(C)c(C(=O)Nc3ccccc3O)sc2n1` [Compound 403, N-(2-hydroxyphenyl)-3,4,6-trimethyl-thieno[2,3-b]pyridine-2-carboxamide], the EC50 under setting [3] was < 5 µM.
`NC(=O)c1sc2nc3c(c(-c4cccs4)c2c1N)CCCC3` [Compound 195, 3-Amino-4-thiophen-2-yl-5,6,7,8-tetrahydro-thieno[2,3-b]quinoline-2-carboxylic acid amide]: the EC50 under setting [1] was > 25 µM.
Regarding `CN1CCc2nc3sc(C(=O)Nc4cccc(C#N)c4)c(N)c3cc2C1` [Compound 112, 3-Amino-6-methyl-5,6,7,8-tetrahydro-thieno[2,3-b][1,6]naphthyridine-2-carboxylic acid (3-cyano-phenyl)-amide], the EC50 under setting [1] was in the range of 5 to 25 µM.
As to `COCc1cc(C)nc2sc(C(=O)N3CCc4ccccc43)c(N)c12` [Compound 249, (3-Amino-4-methoxymethyl-6-methyl-thieno[2,3-b]pyridin-2-yl)-(2,3-dihydro-indol-1-yl)-methanone], the EC50 under setting [1] is > 25 µM.
`COc1cccc(-c2ccc3c(N)c(C(=O)Nc4ccc(C)cc4C)sc3n2)c1` [Compound 554, 3-amino-N-(2,4-dimethylphenyl)-6-(3-methoxyphenyl)thieno[2,3-b]pyridine-2-carboxamide]: the EC50 under setting [3] was < 5 µM.
On to `O=c1[nH]c2c(sc3nc(-c4cccs4)ccc32)c(=O)n1-c1cccc(C(F)(F)F)c1` [Compound 316, 7-(thiophen-2-yl)-3-(3-(trifluoromethyl)phenyl)pyrido[3′,2′:4,5]thieno[3,2-d]pyrimidine-2,4(1H,3H)-dione], for which, under setting [3], the EC50 is < 5 µM.
Regarding `Cc1cc(C)c2c(N)c(C(=O)Nc3cc(C(F)(F)F)ccc3Cl)sc2n1` [Compound 186, 3-Amino-4,6-dimethyl-thieno[2,3-b]pyridine-2-carboxylic acid (2-chloro-5-trifluoromethyl-phenyl)-amide], the EC50 under setting [1] is > 25 µM.
For the compound `Cc1cc(C)c2c(C)c(C(=O)Nc3nc4ccccc4s3)sc2n1` [Compound 392, N-(1,3-benzothiazol-2-yl)-3,4,6-trimethyl-thieno[2,3-b]pyridine-2-carboxamide], the EC50 under setting [3] fell in the range of 5 to 25 µM.
As to `Nc1cnc2sc(C(=O)Nc3nnc(-c4ccccc4)s3)c(N)c2c1` [Compound 290, 3,5-diamino-N-(5-phenyl-1,3,4-thiadiazol-2-yl)thieno[2,3-b]pyridine-2-carboxamide], the EC50 under setting [3] is < 5 µM.
For the compound `Cc1ccc(F)cc1NC(=O)c1sc2nc(-c3ccc(F)cc3)ccc2c1N` [Compound 623, 3-amino-N-(5-fluoro-2-methyl-phenyl)-6-(4-fluorophneyl)thieno[2,3-b]pyridine-2-carboxamide], the EC50 under setting [3] is < 5 µM.
For the compound `Cc1ccc(F)cc1NC(=O)c1sc2nc3c(cc2c1N)CN(C)CC3` [Compound 61, 3-Amino-6-methyl-5,6,7,8-tetrahydro-thieno[2,3-b][1,6]naphthyridine-2-carboxylic acid (5-fluoro-2-methyl-phenyl)-amide], the EC50 under setting [1] is < 5 µM.
Take `COc1ccc(NC(=O)c2sc3nc(-c4cccs4)ccc3c2N)c(OC)c1` [Compound 432, 3-amino-N-(2,4-dimethoxyphenyl)-6-(2-thienyl)thieno[2,3-b]pyridine-2-carboxamide]: the EC50 (DENV2, Vero, 48 h, read-out: Activity (EC50 in μM) DENV-2) is 5 to 25 µM.
With `N#Cc1cc2c(N)c(C(=O)Nc3ccc(Cl)c(Cl)c3)sc2nc1N` [Compound 129, 3,6-Diamino-5-cyano-thieno[2,3-b]pyridine-2-carboxylic acid (3,4-dichloro-phenyl)-amide], the EC50 under setting [1] was > 25 µM.
